Earlier results in US20260146084A1, “METHODS FOR TREATING MYELOFIBROSIS AND RELATED CONDITIONS” (Disc Medicine, Inc., priority 2019, published 2026).
One block for each compound: values may come before it.

What was measured:
[1] = system: pro-inflammatory cytokines; conditions: mouse models
[2] = system: myelofibrosis patients
[3] = target: JAK1 (Homo sapiens, UniProt P23458)
[4] = target: JAK2 (Homo sapiens, UniProt O60674)
[5] = target: T1, ACVR1 (HJV signaling partner) (Homo sapiens, UniProt Q04771)
T1 sequence (Q04771 21-509): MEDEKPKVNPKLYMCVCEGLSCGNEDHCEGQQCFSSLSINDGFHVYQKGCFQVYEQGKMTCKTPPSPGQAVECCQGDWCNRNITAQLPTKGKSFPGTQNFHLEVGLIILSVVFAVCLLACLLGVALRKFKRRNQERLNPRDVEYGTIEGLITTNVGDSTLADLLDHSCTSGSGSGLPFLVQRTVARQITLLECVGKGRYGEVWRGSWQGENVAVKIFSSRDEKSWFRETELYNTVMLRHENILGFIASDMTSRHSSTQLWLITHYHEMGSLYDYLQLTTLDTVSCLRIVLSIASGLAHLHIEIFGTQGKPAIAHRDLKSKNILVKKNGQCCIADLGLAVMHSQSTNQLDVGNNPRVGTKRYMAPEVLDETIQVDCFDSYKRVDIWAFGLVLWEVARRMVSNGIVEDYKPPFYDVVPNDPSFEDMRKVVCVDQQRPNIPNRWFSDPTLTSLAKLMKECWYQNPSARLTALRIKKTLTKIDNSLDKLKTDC

Chain of JAK2 (O60674 whole entry): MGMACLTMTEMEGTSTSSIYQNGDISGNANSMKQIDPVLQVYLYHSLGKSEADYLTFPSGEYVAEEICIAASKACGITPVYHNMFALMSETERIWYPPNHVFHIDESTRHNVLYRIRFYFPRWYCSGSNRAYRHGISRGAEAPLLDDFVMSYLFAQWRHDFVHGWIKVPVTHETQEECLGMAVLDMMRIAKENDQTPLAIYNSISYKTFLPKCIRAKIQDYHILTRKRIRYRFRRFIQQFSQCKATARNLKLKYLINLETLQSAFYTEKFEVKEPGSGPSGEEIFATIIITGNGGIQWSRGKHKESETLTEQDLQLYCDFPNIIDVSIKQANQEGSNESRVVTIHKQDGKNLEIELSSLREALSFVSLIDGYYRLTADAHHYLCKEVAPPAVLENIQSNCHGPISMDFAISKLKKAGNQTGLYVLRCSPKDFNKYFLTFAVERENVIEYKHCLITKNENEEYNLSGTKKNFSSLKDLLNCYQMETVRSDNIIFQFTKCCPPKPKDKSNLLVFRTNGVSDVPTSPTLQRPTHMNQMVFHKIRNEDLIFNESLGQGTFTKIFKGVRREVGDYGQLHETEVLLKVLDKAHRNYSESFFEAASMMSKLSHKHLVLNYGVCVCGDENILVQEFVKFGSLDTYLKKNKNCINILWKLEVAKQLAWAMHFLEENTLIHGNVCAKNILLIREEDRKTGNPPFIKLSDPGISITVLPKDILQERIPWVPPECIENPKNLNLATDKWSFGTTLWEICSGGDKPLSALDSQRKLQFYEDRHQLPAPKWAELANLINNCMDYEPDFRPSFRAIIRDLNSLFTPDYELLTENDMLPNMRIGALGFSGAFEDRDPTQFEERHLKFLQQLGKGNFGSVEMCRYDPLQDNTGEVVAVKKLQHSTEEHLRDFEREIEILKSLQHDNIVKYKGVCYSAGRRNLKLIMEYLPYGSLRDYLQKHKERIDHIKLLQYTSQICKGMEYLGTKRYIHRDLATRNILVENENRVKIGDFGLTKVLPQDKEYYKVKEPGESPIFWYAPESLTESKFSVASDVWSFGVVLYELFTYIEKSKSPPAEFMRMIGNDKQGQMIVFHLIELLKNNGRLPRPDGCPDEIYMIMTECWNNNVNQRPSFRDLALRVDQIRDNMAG
Chain of JAK1 (P23458 whole entry): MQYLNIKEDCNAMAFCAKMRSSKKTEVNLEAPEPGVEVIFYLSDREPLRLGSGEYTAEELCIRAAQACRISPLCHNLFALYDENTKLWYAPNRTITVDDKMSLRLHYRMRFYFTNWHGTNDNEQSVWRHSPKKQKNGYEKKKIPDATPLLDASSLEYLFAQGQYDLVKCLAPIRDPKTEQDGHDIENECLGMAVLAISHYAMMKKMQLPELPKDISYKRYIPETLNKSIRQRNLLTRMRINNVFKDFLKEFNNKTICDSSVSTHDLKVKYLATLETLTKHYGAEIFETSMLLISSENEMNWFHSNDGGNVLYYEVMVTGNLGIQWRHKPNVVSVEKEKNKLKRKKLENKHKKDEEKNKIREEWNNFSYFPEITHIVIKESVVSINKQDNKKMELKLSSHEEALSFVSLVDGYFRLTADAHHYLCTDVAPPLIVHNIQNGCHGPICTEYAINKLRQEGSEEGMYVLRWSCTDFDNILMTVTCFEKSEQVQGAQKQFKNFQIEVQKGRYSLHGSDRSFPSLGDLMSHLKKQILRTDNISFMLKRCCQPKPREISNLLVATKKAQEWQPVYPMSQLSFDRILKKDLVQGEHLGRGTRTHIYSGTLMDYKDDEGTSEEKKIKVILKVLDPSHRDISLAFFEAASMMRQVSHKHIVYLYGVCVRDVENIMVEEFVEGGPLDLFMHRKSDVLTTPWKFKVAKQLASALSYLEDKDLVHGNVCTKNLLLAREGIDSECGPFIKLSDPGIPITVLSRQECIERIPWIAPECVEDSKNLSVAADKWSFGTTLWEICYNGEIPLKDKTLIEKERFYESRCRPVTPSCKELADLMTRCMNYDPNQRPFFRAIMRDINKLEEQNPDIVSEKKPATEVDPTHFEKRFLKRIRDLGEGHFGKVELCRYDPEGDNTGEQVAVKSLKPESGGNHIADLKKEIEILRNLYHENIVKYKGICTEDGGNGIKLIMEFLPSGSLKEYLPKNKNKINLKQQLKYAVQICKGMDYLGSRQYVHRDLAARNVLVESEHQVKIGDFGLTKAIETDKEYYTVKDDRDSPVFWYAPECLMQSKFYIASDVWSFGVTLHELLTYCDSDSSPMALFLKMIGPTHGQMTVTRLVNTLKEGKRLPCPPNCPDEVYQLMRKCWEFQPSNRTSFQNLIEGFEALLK

SMILES: Cc1noc2c1-c1ccccc1C(c1ccc(Cl)cc1)=N[C@H]2CC(N)=O [CP-0610]
pro-inflammatory cytokines [1]: downregulated pro-inflammatory cytokines

effect on anemia [2]: worsens anemia
SMILES: Cc1cnc(Nc2ccc(OCCN3CCCC3)cc2)nc1Nc1cccc(S(=O)(=O)NC(C)(C)C)c1 [Fedratinib]

effect on anemia [2]: improves anemia
inhibition of JAK1 [3]: inhibits
inhibition of JAK2 [4]: inhibits
inhibition of ACVR1 [5]: inhibits
SMILES: N#CCNC(=O)c1ccc(-c2ccnc(Nc3ccc(N4CCOCC4)cc3)n2)cc1 [Momelotinib]
effect on splenomegaly and disease symptoms [2]: improving disease symptoms

effect on anemia [2]: worsens anemia
SMILES: N#CC[C@H](C1CCCC1)n1cc(-c2ncnc3[nH]ccc23)cn1 [ruxolitinib]
